Source: publication PMC10140010 (Investigational New Drugs, 2023)
Where “and” joins values, the source holds several entries; their conditions need not be identical. Identical values can stand only once.

Legend:
[1] = target: MST4 (Homo sapiens, UniProt Q9P289); assay: Z'-LYTE kinase selectivity; assay type: biochemical
[2] = target: c-MET (Homo sapiens, UniProt P08581); assay: Z'-LYTE kinase selectivity; assay type: biochemical
[3] = target: SRC (Homo sapiens, UniProt P12931); assay: Z'-LYTE kinase selectivity; assay type: biochemical
[4] = system: LU-01-0015 (HIP-ALK) patient derived lung-tumor xenografts; assay: LU-01-0015 patient-derived xenograft model (tumor volume, body weight); assay type: in vivo, BALB/c nude mice; settings: for Tumor volume Mean: group mean; for Tumor volume: individual mouse, in mm³
Method: Female BALB/c nude mice (4–6 weeks old) were provided by Shanghai Sipple-Bikai Laboratory Animal Co., Ltd. and Beijing Vital River Laboratory Animal Technology Co., Ltd. The mice were housed in a specific pathogen-free environment under a 12 h light/dark cycle, and had free access to sterile animal feed and water.
PDX and CDX models were used for in vivo studies. Patient-derived tumors tissues were divided into about 30 mm^3 and transplanted into the right dorsal subcutis. Treatment began when the tumor size reached to 200 mm^3. The mice were randomly assignied into the corresponding dosing groups (9 mice in each group). Drugs were deliverd via daily oral for 4 weeks. Tumor size was measured periodically using a digital caliper (Cal Pro, Sylvac, Switzerland), and tumor volume was calculated as 0.5 × length × width^2. For more detailed information, please refer to Supplementary materials. All procedures and protocols of xenograft models were approved by the Institutional Animal Care and Use Committee of WuXi AppTec.
Patient-derived tumor tissue was segmented into small pieces of approximately 20–30 mm^3 and transplanted subcutaneously into the right back of mice. When the tumor volume reached 150-200 mm^3, the mice were randomly divided into corresponding groups (9 mice in each group, female). Administered by gavage once daily for 4 weeks.

[5] = target: JAK2 (Homo sapiens, UniProt O60674); assay: Z'-LYTE kinase selectivity; assay type: biochemical
[6] = target: CaMK2 alpha (Homo sapiens, UniProt Q9UQM7); assay: Z'-LYTE kinase selectivity; assay type: biochemical
[7] = system: phosphorylation of ALK, AKT, ERK, STAT3 and STAT5 in NCI-H3122 tumor tissue; assay: Phosphorylation of downstream signal molecules in tumor tissue of NCI-H3122 xenograft; assay type: in vivo, BALB/c nude mice; settings: 8 h after administration
Method: In general, the cells were exposed to the drug and were harvested for western blot analysis. SDS-PAGE was used to separate the proteins of interest, which were then transferred to a nitrocellulose (NC) filtration membrane and soaked in a blocking solution [5% non-fat dry milk in tris-buffered saline with Tween 20 (TBST)] for 1 h at room temperature. Thereafter, the membrane was probed overnight with primary antibodies at 4℃ and washed three times with TBST. The corresponding secondary antibody diluent was added, incubated at room temperature for 1 h, and washed 3 times with TBST. After adding the enhanced chemiluminescence developer to the NC filtration membrane, it is developed in the imaging system (ChemiDoc™ XRS^+, BIO-RAD). See Supplementary Table 2 for details of the antibodies used.
In order to check how iruplinalkib exerts its anti-tumor effects in vivo, tumor tissue samples were collected at 1 and 8 h after the last dose, and the phosphorylation level of downstream signaling pathways molecules were detected.

[8] = target: MAPKAPK2 (Homo sapiens, UniProt P49137); assay: Z'-LYTE kinase selectivity; assay type: biochemical
[9] = target: ABL (Homo sapiens, UniProt P00519); assay: Z'-LYTE kinase selectivity; assay type: biochemical
[10] = target: EPHA2 (Homo sapiens, UniProt P29317); assay: Z'-LYTE kinase selectivity; assay type: biochemical
[11] = target: P38 alpha (Homo sapiens, UniProt Q16539); assay: Z'-LYTE kinase selectivity; assay type: biochemical
[12] = target: MINK (Homo sapiens, UniProt Q8N4C8); assay: Z'-LYTE kinase selectivity; assay type: biochemical
[13] = target: CDK2 (Homo sapiens, UniProt P24941); assay: Z'-LYTE kinase selectivity; assay type: biochemical
[14] = system: Karpas299 (NPM-ALK) cells; assay: Cell proliferation (CellTiter-Glo); assay type: cell-based
Method: (§1) Cell proliferation assay was performed using methods reported in the previous article. Cell proliferation was measured using the CellTiter-Glo® (CTG) Luminescent Cell Viability Assay (Promega, WI, USA). Cells were seeded in 96-well plates at 15,000 cells per well in detection medium containing 0.5% fetal bovine serum and placed in an incubator at 37℃ and 5% CO2 overnight. On the following day, iruplinalkib was serially diluted with DMSO, further diluted in assay medium, and added to the designated wells for serial dilution of iruplinalkib to the target gradient concentration.

[15] = system: Ba/F3 (EML4-ALK^WT) cells; assay: Cell proliferation (CellTiter-Glo); assay type: cell-based; settings: read-out: IC50 BaF3-EML4-ALK WT
Method: as §1
(§2) Transfection was performed when cell confluent reached 70–90% in 12-well plates. Opti-MEM medium was used to dilute Lipofectamine 3000 reagent (ThermoFisher, MA, USA) and siRNA separately and mixed well. The mixture was added to the cells after incubation at room temperature for 15 min, then at 37℃ for 2–4 days.

[16] = system: Ba/F3 (EML4-ALK^C1156Y) cells; assay: Cell proliferation (CellTiter-Glo); assay type: cell-based; settings: read-out: IC50 BaF3-EML4-ALK C1156Y
Method: as §1, §2

[17] = 5 mg/kg PO QD×4 W, day 0 after administration
[18] = 5 mg/kg PO QD×4 W, day 7 after administration
[19] = 5 mg/kg PO QD×4 W, day 10 after administration
[20] = 5 mg/kg PO QD×4 W, day 14 after administration
[21] = 5 mg/kg PO QD×4 W, day 17 after administration
[22] = 5 mg/kg PO QD×4 W, day 21 after administration
[23] = 5 mg/kg PO QD×4 W, day 24 after administration
[24] = 5 mg/kg PO QD×4 W, day 27 after administration
[25] = 10 mg/kg PO QD×4 W, day 0 after administration
[26] = 10 mg/kg PO QD×4 W, day 3 after administration
[27] = 10 mg/kg PO QD×4 W, day 7 after administration
[28] = 10 mg/kg PO QD×4 W, day 10 after administration
[29] = 10 mg/kg PO QD×4 W, day 14 after administration
[30] = 10 mg/kg PO QD×4 W, day 17 after administration
[31] = 10 mg/kg PO QD×4 W, day 21 after administration
[32] = 10 mg/kg PO QD×4 W, day 24 after administration
[33] = 10 mg/kg PO QD×4 W, day 27 after administration

Sequence of ABL (P00519 whole entry): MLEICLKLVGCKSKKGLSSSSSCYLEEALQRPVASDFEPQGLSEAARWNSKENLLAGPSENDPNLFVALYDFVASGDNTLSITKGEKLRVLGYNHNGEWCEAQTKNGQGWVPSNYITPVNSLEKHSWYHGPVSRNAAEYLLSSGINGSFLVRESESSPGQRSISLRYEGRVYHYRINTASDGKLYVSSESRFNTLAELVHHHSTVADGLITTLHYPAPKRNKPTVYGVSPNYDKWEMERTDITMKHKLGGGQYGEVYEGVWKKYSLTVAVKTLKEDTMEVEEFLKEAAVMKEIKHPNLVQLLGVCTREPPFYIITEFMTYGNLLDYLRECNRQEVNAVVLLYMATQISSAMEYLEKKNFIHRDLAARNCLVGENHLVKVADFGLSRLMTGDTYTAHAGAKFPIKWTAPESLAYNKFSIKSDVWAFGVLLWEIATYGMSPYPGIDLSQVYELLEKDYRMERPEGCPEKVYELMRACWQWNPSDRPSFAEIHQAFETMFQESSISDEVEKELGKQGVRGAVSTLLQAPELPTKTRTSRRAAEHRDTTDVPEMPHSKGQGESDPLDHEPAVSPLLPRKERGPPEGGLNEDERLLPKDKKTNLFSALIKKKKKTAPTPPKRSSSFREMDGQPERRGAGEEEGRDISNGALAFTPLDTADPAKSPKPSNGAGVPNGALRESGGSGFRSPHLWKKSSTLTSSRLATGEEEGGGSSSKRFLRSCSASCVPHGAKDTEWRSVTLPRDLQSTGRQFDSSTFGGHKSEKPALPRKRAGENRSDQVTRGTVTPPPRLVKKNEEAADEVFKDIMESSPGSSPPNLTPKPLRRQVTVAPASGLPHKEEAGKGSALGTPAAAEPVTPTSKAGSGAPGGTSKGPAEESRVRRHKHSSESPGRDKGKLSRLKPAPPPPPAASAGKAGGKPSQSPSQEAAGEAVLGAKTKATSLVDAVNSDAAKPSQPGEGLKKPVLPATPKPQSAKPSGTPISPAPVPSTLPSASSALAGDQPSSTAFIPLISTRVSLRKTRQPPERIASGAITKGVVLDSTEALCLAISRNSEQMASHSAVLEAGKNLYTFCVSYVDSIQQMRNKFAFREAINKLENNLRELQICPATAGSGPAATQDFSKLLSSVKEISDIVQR
Sequence of MAPKAPK2 (P49137 whole entry): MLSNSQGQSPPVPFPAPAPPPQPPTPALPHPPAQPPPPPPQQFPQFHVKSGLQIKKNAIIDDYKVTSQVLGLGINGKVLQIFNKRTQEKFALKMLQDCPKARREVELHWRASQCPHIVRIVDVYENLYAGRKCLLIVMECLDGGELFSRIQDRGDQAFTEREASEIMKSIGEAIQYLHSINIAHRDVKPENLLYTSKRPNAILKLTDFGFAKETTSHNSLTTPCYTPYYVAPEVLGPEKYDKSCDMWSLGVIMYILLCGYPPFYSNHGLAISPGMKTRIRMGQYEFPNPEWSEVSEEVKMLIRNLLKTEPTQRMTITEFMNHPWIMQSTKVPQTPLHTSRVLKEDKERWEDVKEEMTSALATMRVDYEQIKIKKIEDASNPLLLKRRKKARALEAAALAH
Sequence of P38 alpha (Q16539 whole entry): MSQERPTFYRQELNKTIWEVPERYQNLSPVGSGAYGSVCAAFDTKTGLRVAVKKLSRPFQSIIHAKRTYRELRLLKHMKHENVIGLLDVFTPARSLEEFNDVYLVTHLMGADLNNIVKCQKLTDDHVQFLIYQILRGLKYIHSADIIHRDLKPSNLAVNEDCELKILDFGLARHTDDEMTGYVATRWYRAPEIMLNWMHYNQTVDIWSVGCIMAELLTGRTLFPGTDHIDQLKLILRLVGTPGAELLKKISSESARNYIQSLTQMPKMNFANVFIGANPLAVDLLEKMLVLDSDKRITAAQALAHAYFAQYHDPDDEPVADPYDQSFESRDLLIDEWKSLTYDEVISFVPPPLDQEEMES
Sequence of MINK (Q8N4C8 whole entry): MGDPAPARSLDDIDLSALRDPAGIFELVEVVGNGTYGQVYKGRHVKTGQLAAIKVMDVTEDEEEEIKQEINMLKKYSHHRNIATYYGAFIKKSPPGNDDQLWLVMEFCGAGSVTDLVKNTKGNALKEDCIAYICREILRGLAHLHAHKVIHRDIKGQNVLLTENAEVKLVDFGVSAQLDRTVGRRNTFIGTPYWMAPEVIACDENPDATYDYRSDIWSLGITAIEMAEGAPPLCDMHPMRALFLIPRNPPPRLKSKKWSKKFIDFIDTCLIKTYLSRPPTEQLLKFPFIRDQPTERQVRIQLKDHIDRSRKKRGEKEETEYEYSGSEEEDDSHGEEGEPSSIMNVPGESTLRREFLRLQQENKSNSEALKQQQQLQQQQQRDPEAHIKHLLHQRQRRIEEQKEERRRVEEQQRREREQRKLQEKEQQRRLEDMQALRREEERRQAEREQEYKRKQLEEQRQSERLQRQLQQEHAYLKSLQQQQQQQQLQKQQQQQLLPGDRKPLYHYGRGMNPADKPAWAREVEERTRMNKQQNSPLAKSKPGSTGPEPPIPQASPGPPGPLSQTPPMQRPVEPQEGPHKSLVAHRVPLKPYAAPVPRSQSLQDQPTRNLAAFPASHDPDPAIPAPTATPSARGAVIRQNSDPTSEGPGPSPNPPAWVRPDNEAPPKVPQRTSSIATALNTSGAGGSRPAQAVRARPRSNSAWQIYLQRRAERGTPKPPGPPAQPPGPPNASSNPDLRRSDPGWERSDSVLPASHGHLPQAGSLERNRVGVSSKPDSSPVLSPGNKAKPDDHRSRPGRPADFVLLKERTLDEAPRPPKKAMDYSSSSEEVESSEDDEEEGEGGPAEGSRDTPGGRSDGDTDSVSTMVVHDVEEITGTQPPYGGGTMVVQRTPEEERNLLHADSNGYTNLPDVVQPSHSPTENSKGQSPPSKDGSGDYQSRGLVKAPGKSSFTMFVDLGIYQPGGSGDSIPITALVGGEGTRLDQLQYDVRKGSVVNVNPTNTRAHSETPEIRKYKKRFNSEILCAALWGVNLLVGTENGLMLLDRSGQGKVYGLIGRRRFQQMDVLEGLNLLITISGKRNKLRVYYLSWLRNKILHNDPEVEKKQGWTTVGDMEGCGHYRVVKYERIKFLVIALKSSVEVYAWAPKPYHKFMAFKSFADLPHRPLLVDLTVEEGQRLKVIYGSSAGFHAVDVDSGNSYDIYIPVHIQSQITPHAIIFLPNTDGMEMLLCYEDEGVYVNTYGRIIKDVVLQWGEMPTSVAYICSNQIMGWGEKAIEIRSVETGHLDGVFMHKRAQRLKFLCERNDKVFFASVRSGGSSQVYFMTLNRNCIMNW
Sequence of EPHA2 (P29317 24-976): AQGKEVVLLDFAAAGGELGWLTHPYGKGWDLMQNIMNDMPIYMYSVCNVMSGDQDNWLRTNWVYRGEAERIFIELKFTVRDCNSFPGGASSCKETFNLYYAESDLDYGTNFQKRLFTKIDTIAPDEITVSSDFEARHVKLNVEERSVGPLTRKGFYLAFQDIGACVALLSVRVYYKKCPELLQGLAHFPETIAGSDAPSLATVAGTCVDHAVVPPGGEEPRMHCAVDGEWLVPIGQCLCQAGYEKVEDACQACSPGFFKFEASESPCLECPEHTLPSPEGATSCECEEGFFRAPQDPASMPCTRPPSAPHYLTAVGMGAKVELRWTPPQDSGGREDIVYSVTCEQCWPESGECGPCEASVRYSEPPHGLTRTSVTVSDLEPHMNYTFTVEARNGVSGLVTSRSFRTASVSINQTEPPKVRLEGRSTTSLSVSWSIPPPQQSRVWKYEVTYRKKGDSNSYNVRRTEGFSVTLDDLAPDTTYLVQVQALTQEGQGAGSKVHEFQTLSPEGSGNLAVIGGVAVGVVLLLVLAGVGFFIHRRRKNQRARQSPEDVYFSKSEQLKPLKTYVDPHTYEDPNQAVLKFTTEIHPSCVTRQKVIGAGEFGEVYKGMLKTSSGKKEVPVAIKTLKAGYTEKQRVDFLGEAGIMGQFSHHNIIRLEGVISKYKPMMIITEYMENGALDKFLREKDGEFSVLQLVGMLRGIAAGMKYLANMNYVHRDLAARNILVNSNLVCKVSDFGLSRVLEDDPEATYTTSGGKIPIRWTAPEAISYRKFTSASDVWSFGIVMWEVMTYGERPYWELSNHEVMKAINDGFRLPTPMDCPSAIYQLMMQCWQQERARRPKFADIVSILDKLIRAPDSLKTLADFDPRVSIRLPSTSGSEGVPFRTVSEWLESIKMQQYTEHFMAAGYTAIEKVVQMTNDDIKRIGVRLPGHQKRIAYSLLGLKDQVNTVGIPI
Sequence of MST4 (Q9P289 whole entry): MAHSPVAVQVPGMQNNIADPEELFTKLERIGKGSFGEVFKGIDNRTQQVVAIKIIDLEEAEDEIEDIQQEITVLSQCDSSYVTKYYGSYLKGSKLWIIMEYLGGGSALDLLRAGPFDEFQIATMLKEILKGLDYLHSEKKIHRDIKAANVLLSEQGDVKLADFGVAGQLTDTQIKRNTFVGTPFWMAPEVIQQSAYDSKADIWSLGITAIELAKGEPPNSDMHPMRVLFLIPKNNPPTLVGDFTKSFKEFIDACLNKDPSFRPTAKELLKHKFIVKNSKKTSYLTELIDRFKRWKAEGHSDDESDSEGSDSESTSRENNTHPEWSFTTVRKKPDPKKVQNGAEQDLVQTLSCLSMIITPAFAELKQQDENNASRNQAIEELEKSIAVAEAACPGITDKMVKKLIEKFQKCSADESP
Sequence of CaMK2 alpha (Q9UQM7 whole entry): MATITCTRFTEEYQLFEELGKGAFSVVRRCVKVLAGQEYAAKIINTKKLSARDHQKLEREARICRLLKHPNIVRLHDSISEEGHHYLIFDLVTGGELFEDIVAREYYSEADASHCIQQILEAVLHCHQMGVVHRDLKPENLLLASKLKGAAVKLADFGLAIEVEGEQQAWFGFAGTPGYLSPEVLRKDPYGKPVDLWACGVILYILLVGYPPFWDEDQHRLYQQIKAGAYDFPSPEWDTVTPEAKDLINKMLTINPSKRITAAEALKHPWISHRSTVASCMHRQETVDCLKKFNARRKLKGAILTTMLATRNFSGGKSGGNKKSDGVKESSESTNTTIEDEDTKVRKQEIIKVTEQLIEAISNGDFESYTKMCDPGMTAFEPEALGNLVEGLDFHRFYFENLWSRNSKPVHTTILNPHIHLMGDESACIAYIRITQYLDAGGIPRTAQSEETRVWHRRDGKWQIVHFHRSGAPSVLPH

COc1cc(N2CCC(N3CCN(C)CC3)CC2)ccc1Nc1ncc(Cl)c(Nc2ccccc2P(C)(C)=O)n1 [Brigatinib, reference compound]
IC50 [1]: 1080 ± 502 nM
IC50 [2]: 1830 ± 231 nM
IC50 [3]: 950 ± 309 nM
Tumor volume Mean [4, 17]: 153 mm³
Tumor volume [4, 17]: 189 and 117 and 124
Tumor volume ([4]; 5 mg/kg PO QD×4 W, day 3 after administration): 172 and 123 and 114
Tumor volume Mean [4, 18]: 146 mm³
Tumor volume [4, 18]: 149 and 98
Tumor volume Mean [4, 19]: 122 mm³
Tumor volume [4, 19]: 128 and 67
Tumor volume Mean [4, 20]: 123 mm³
Tumor volume [4, 20]: 154 and 64
Tumor volume Mean [4, 21]: 146 mm³
Tumor volume [4, 21]: 177 and 96
Tumor volume Mean [4, 22]: 162 mm³
Tumor volume [4, 22]: 138 and 255
Tumor volume Mean [4, 23]: 148 mm³
Tumor volume [4, 23]: 122 and 117
Tumor volume Mean [4, 24]: 157 mm³
Tumor volume [4, 24]: 113 and 101 and 56
Tumor volume Mean [4, 25]: 149 mm³
Tumor volume [4, 25]: 229 and 201 and 134 and 173 and 152 and 164 and 80 and 99 and 111
Tumor volume Mean [4, 26]: 141 mm³
Tumor volume [4, 26]: 206 and 208 and 136 and 143 and 125 and 137 and 82 and 123 and 106
Tumor volume Mean [4, 27]: 123 mm³
Tumor volume [4, 27]: 195 and 180 and 121 and 110 and 74 and 78 and 152 and 89
Tumor volume Mean [4, 28]: 114 mm³
Tumor volume [4, 28]: 236 and 171 and 101 and 97 and 63 and 85 and 89 and 106 and 80
Tumor volume Mean [4, 29]: 108 mm³
Tumor volume [4, 29]: 204 and 172 and 98 and 118 and 60 and 84 and 74 and 89 and 71
Tumor volume Mean [4, 30]: 133 mm³
Tumor volume [4, 30]: 239 and 176 and 118 and 196 and 66 and 106 and 97 and 89
Tumor volume Mean [4, 31]: 133 mm³
Tumor volume [4, 31]: 247 and 182 and 156 and 187 and 61 and 96 and 111 and 68 and 85
Tumor volume Mean [4, 32]: 136 mm³
Tumor volume [4, 32]: 262 and 186 and 98 and 210 and 62 and 101 and 137 and 102 and 70
Tumor volume Mean [4, 33]: 152 mm³
Tumor volume [4, 33]: 332 and 197 and 131 and 249 and 47 and 95 and 163 and 85 and 70
tumor growth inhibition ([4]; LU-01-0015 and NCI-H3122 xenograft models, all P < 0.05): able to inhibit tumor growth
effect on body weight ([4]; nude mouse xenograft models (LU-01-0015, NCI-H3122), all P ≥ 0.05): no effect
IC50 [5]: 680 ± 47 nM
IC50 [6]: 319 ± 13 nM
levels of phosphorylation of STAT3 and STAT5 in tumor tissue [7]: decreased
IC50 [8]: > 10000 nM
IC50 [9]: 596 ± 52 nM
IC50 [10]: > 10000 nM
IC50 [11]: > 10000 nM
IC50 [12]: 4040 ± 2160 nM
IC50 [13]: 1510 ± 554 nM
IC50 [14]: 9 nM
IC50 [15]: 6 nM
IC50 [16]: 14 nM
